Measured values as given in PubChem BioAssay AID504927 (NMMLSC, 2011).
Several values for one entry are separate records, joined by “and”; a condition that tells them apart may be missing. Identical values can stand only once. Activity calls are given as the source filed them.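 The calls were made as follows: active = EC50 below 10 microM from an accepted curve fit, fit percent over 10, EC50 error under a fifth; inactive = the rest.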

Assays:
[1] = inhibitors of superoxide in aged yeast, dose response, additional hits, confirmation (AID 504927); details: S. cerevisiae aged culture, superoxide DHE fluorescence, 7 d; at 33.1 µM (top of the series)
[2] = test system: S. cerevisiae aged culture, superoxide DHE fluorescence, 7 d; test: as above

In the case of `CC(C)CSc1nnc2c3ccccc3n(C)c2n1`, the percent response (superoxide), lower = inhibition [1] is reported as 105% (inactive).

In the case of `C=C1C(O)[C@@H]2O[C@]3(CC[C@H](/C=C/C(C)[C@@H]4CC(C)=CC5(O[C@H](C[C@@](C)(O)C(=O)O)CCC5O)O4)O3)CC[C@H]2O[C@@H]1C(O)CC(C)[C@H]1OC2(CCCCO2)CCC1C` (stereo partly drawn), the percent response (superoxide), lower = inhibition [1] is reported as 84% (inactive).

For `NC(=O)CSc1nnc(-c2ccc([N+](=O)[O-])cc2)o1`, the percent response (superoxide), lower = inhibition [1] was 99.1% (inactive).

With `CC(C)OC(=O)c1ccc2nc3ccccc3nc2c1` the EC50 [2] was 12600 nM (inactive).

With `N#CCc1nn(-c2ccccc2)c2ncnc(N)c12` the percent response (superoxide), lower = inhibition [1] was 95.5% (inactive).

`OCC[n+]1c2ccccc2nc2ccc(N3CCOCC3)cc21` showed an EC50 [2] of 2610 nM.

With `C[C@]12CCC3C(CC[C@H]4C[C@H](O)CC[C@]34C)C1C[C@@H](CCCCl)[C@@H]2O` (stereo partly drawn) the EC50 [2] was 530 nM.

With `Cc1ccc(-c2nn(C(C)(C)C)c3ncnc(N)c23)cc1` the percent response (superoxide), lower = inhibition [1] was 44.3% (inactive).

For `Cc1cc(C)c2[nH]c3nc(SCC(=O)O)nnc3c2c1`, the percent response (superoxide), lower = inhibition [1] was 111% (inactive).

In the case of `CSc1nnc(-c2ccc([N+](=O)[O-])cc2)o1`, the EC50 [2] is reported as 13100 nM (inactive).

With `Cc1cc2nc3ccc(N(C)C)cc3nc2cc1N` the percent response (superoxide), lower = inhibition [1] was 82.4% (inactive).

For `COc1ccc2cc(C3CC(c4ccco4)=NN3S(=O)(=O)c3ccccc3)c(Cl)nc2c1` (stereo not drawn), the percent response (superoxide), lower = inhibition [1] was 110% (inactive).

For `C[C@]12CCC3C(CC[C@H]4C[C@@H](O)CC[C@]34C)C1CC[C@@H]2OC(=O)[C@H](N)CCCCN` (stereo partly drawn), the percent response (superoxide), lower = inhibition [1] was 96.2% (inactive).

For `Cc1ccccc1NC(=O)c1cccc2nc3ccccc3nc12`, the percent response (superoxide), lower = inhibition [1] was 104% (inactive).

For `C[n+]1c2ccccc2nc2ccc(NCCO)cc21`, the EC50 [2] was 4520 nM.

With `O=C(Nc1ccc2nc3ccccc3nc2c1)c1ccc(Br)cc1` the percent response (superoxide), lower = inhibition [1] was 104% (inactive).

`COC(=O)c1cccc2nc3c(C(C)O)cccc3nc12` (stereo not drawn) gave an EC50 [2] of 910 nM.

In the case of `CCCCCNC(=O)C(=O)C1C(=O)Nc2ccccc21` (stereo not drawn), the percent response (superoxide), lower = inhibition [1] is reported as 86.1% (inactive).

Work on `O=C(Nc1ccc2nc3ccccc3nc2c1)c1ccccc1` yielded an EC50 [2] of 80 nM.

Molecule `CSc1nnc2c3cc(F)ccc3n(C)c2n1` has an EC50 [2] of 5860 nM.

Work on `C[C@]12CCC3C(CC[C@H]4C[C@H](O)CC[C@]34C)C1CCC2=O` (stereo partly drawn) yielded an EC50 [2] of 30 nM.

`CNc1ccc2nc3ccccc3[n+](C)c2c1` gave an EC50 [2] of 2110 nM.

For `COc1ccc2nc3ccccc3[n+]([O-])c2c1`, the percent response (superoxide), lower = inhibition [1] was 107% (inactive).

For `Cc1cc(C)cc(NC(=O)CN2CCN(c3ccccn3)CC2)c1`, the percent response (superoxide), lower = inhibition [1] was 95.7% (inactive).

With `CCc1nc(NC(C)(C)C)c2cnn(-c3ccccc3)c2n1` the percent response (superoxide), lower = inhibition [1] was 119% (inactive).

In the case of `COc1cccc2nc3cc(C)c(C)cc3nc12`, the percent response (superoxide), lower = inhibition [1] is reported as 78.3% (inactive).

In the case of `O=C(OCc1c(F)cccc1Cl)c1cnc2ccccc2n1`, the EC50 [2] is reported as 5980 nM.

With `CC(C)(C)Nc1ncnc2c1cnn2-c1ccccc1` the percent response (superoxide), lower = inhibition [1] was 110% (inactive).

In the case of `Cn1c(O)c(C(=Nc2ccc(F)cc2)c2ccccc2Cl)c(=O)n(C)c1=O`, the percent response (superoxide), lower = inhibition [1] is reported as 113% (inactive).

For `O=C(/C=C/c1cccs1)NC(=S)NNC(=O)Cc1cccs1`, the percent response (superoxide), lower = inhibition [1] was 132% (inactive).

With `COc1ccc2nc3ccccc3nc2c1N` the EC50 [2] was 1130 nM.

For `C[C@]12CCC3C(CC[C@H]4C[C@@H](O)CC[C@]34C)[C@H]1CC[C@H]2O` (stereo partly drawn), the percent response (superoxide), lower = inhibition [1] was 113% (inactive).

In the case of `c1ccc2nc3ccccc3nc2c1`, the percent response (superoxide), lower = inhibition [1] is reported as 88.6% (inactive).

For `CCn1c2ccccc2c2n[nH]c(=S)nc21`, the percent response (superoxide), lower = inhibition [1] was 94.7% (inactive).

With `CC(=O)Nc1ccc2nc3ccccc3nc2c1` the EC50 [2] was 170 nM.

In the case of `CC(=O)[C@@]1(O)CCC2C3CC[C@H]4C[C@@H](O)CC[C@]4(C)C3CC[C@@]21C` (stereo partly drawn), the percent response (superoxide), lower = inhibition [1] is reported as 107% (inactive).

In the case of `C/C(=N\Nc1ncnc2sc(C)c(C)c12)c1ccccn1`, the EC50 [2] is reported as 10400 nM (inactive).

In the case of `COc1ccc2nc3ccccc3nc2c1NC(=O)c1ccccc1Cl`, the EC50 [2] is reported as 60 nM.

With `Cc1cccc2nc3ccccc3nc12` the EC50 [2] was 2720 nM.

Work on `c1ccc2[nH]c3cc4ncnc4cc3nc2c1` yielded an EC50 [2] of 130 nM.

For `C=CCSc1nnc(-c2ccc([N+](=O)[O-])cc2)o1`, the percent response (superoxide), lower = inhibition [1] was 63.5% (inactive).

Work on `O=C(c1cccc2nc3ccccc3nc12)N1CCOCC1` yielded an EC50 [2] of 1750 nM.

With `COc1ccc2c(c1)c1nnc(SC)nc1n2C` the percent response (superoxide), lower = inhibition [1] was 54.2% (inactive).

In the case of `C#C[C@]1(O)[C@H](O)CC2C3CC[C@H]4C[C@@H](O)CC[C@]4(C)C3CC[C@@]21C` (stereo partly drawn), the percent response (superoxide), lower = inhibition [1] is reported as 117% (inactive).

For `O=C(/C=C/c1ccccc1)NC(=S)NNC(=O)Cc1cccs1`, the percent response (superoxide), lower = inhibition [1] was 78.9% (inactive).

With `CCN(CC)C(=O)CSc1nnc(-c2cccc(OC)c2)o1` the percent response (superoxide), lower = inhibition [1] was 108% (inactive).

In the case of `COc1ccc2nc3cccc(OC)c3nc2c1`, the percent response (superoxide), lower = inhibition [1] is reported as 79.2% (inactive).

With `Oc1cccc2nc3ccccc3nc12` the percent response (superoxide), lower = inhibition [1] was 129% (inactive).

For `Cn1c(=O)[nH]c2nncnc2c1=O`, the EC50 [2] was 3400 nM.

For `O=C(Nc1cccc(Cl)c1)Nc1ccc2nccnc2c1`, the EC50 [2] was 510 nM.

Molecule `O=C1c2c(O)ccc(O)c2C(=O)c2c(NCCNCCO)ccc(NCCNCCO)c21` has an EC50 [2] of 6580 nM.

In the case of `Nc1cc2nc3ccccc3nc2cc1N`, the EC50 [2] is reported as 3500 nM.

For `COc1ccc2c3c(cccc13)N(C)N=C2C`, the percent response (superoxide), lower = inhibition [1] was 78.1% (inactive).

Work on `C[C@@]12C(=O)OC(=O)[C@]1(C)C1CCC2O1` yielded an EC50 [2] of 180 nM.

`CCN(CC)C(=O)c1cccc2nc3ccccc3nc12` gave an EC50 [2] of 1520 nM.

For `COc1ccc2nc3ccccc3nc2c1`, the EC50 [2] was 370 nM and 850 nM.

With `N#CC(c1nc2ccccc2nc1N1CCCC1)S(=O)(=O)c1ccccc1` (stereo not drawn) the percent response (superoxide), lower = inhibition [1] was 128% (inactive).

For `O=C(CN1CCN(c2ccccn2)CC1)Nc1ccccc1F`, the percent response (superoxide), lower = inhibition [1] was 108% (inactive).

For `CC(C)OC(=O)CSc1nnc(-c2ccc(Cl)cc2Cl)o1`, the percent response (superoxide), lower = inhibition [1] was 128% (inactive).

For `CCC(=Nc1ccccc1O)C1=C(O)CC(c2ccccc2)CC1=O` (stereo not drawn), the percent response (superoxide), lower = inhibition [1] was 87.9% (inactive).

`CCN(CC)c1ccc2nc3ccc(N)cc3[n+](-c3ccccc3)c2c1` showed an EC50 [2] of 2310 nM.

With `C=CCOn1c(=O)c(-c2cccs2)[n+]([O-])c2ccccc21` the percent response (superoxide), lower = inhibition [1] was 83.4% (inactive).

With `CNC(=O)c1cccc2nc3ccccc3nc12` the percent response (superoxide), lower = inhibition [1] was 52% (inactive).

With `O=C(O)c1cnc2ccccc2n1` the EC50 [2] was 13400 nM (inactive).

For `CC(=O)O[C@H]1CCC2C3CC[C@H]4[C@@H](O)[C@H](O)CC[C@]4(C)C3CC[C@@]21C` (stereo partly drawn), the percent response (superoxide), lower = inhibition [1] was 93.3% (inactive).

For `CN(C)CCNc1ncnc2c1cnn2-c1ccc(Cl)cc1`, the percent response (superoxide), lower = inhibition [1] was 97.4% (inactive).

In the case of `FC(F)(F)c1nc2cc3nc4ccccc4[nH]c3cc2n1`, the percent response (superoxide), lower = inhibition [1] is reported as 72.2% (inactive).

For `CCN(CC)C(=O)c1ccc2nc3ccccc3nc2c1`, the EC50 [2] was 790 nM.

In the case of `O=c1[nH]c(O)c(C=Nc2ccc(F)c(Cl)c2)c(=O)[nH]1`, the percent response (superoxide), lower = inhibition [1] is reported as 97.1% (inactive).

Work on `[O-][n+]1c2ccccc2[n+]([O-])c2cc(O)ccc21` yielded an EC50 [2] of 1110 nM.

In the case of `C#CCSc1nnc(-c2ccc([N+](=O)[O-])cc2)o1`, the EC50 [2] is reported as 5160 nM.

With `CC(C)(C)n1nc(-c2ccc(Cl)cc2)c2c(N)ncnc21` the EC50 [2] was 4230 nM.

Molecule `CC(C)(C)n1nc(-c2ccc(F)cc2)c2c(N)ncnc21` has an EC50 [2] of 2440 nM.
